Assay results published in patent US20240158439A1, “INHIBITORS OF ANTIGEN PRESENTATION BY MHC CLASS II HLA-DRB1*15:01 MOLECULES WITH ENHANCED METABOLIC STABILITY” (Provid Pharmaceuticals Inc., priority 2021, published 2024).
Like-named read-outs stand apart in the source and are kept apart here. *1 amine or outer side, *2 acyl side, *3 side chain or, on linkers, in order; H or OH if unused. Where a SMILES comes first, the peptide text is derived from it. Where no end group is shown, it is not given here. [ ]: non-standard residue; d: D form. The star is where a group is joined. Ala(indol-4-yl) = N[C@@H](Cc1cccc2[nH]ccc12)C(=O)O; Trp(1-Me) = Cn1cc(C[C@H](N)C(=O)O)c2ccccc21; X1 = O=C([C@H](Cc1ccc2ccccc2n1)N[*:1])[*:2]; Ala(4-thiazolyl) = N[C@@H](Cc1cscn1)C(=O)O; X3 = Nc1nc(C[C@H](N[*:1])C(=O)[*:2])c[nH]1; Dab(CONH2) = NC(=O)NCC[C@H](N)C(=O)O; Igl = N[C@H](C(=O)O)C1Cc2ccccc2C1; hCit = NC(=O)NCCCC[C@H](N)C(=O)O; Tic = O=C(O)[C@@H]1Cc2ccccc2CN1; Cit = NC(=O)NCCC[C@H](N)C(=O)O; Agb = N=C(N)NCC[C@H](N)C(=O)O; Chg = N[C@H](C(=O)O)C1CCCCC1; Morpholide = C1CN(*)CCO1; βAla = NCCC(=O)O; Sar = CNCC(=O)O

Molecular target: T1, HLA-DRB1*15:01 (Homo sapiens, UniProt P01903+P01911)
T1 construct: endogenous in cells; host or cells: EBV homozygous cell lines (human)
Experiment: HLA II binding assay (competitive, biotinylated reference peptide)

[1] = Table 2, DRB1*15:01 binding, unit inferred, nM, read-out: Avg IC50

CC(C)[C@H](NC(=O)CN)C(=O)N[C@H](C(=O)N[C@@H](CCCNC(N)=O)C(=O)N1Cc2ccccc2C[C@H]1C(=O)N[C@@H](Cc1ccccc1)C(N)=O)C1CCCCC1 [PV-661] (H-GV[Chg][Cit][Tic]F-NH2) gave an IC50 [1] of 5 nM.
In the case of CC(=O)N[C@H](C(=O)N[C@H](C(=O)N[C@@H](CCCNC(=N)N)C(=O)N1Cc2ccccc2C[C@H]1C(=O)N[C@@H](Cc1cccc2[nH]ccc12)C(N)=O)C1CCCCC1)C(C)C [PV-493] (Ac-V[Chg]R[Tic][Ala(indol-4-yl)]-NH2), the IC50 [1] is reported as 1.5 nM.
Compound CC(=O)N[C@H](C(=O)N[C@@H](CCCNC(=N)N)C(=O)N1Cc2ccccc2C[C@H]1C(=O)N[C@@H](Cc1cccc2[nH]ccc12)C(N)=O)C1CCCCC1 [PV-476] (Ac-[Chg]R[Tic][Ala(indol-4-yl)]-NH2) has an IC50 [1] of 30.1 nM.
Work on CC(=O)N[C@H](C(=O)N[C@H](C(=O)N[C@@H](CCNC(=N)N)C(=O)N1Cc2ccccc2C[C@H]1C(=O)N[C@@H](Cc1ccccc1)C(N)=O)C1CCCCC1)C(C)C [PV-562] (Ac-V[Chg][Agb][Tic]F-NH2) yielded an IC50 [1] of 5.3 nM.
CC(=O)N[C@H](C(=O)N[C@H](C(=O)N[C@@H](C)C(=O)N1Cc2ccccc2C[C@H]1C(=O)N[C@@H](Cc1ccccc1)C(N)=O)C1CCCCC1)C(C)C [PV-560] (Ac-V[Chg]A[Tic]F-NH2) gave an IC50 [1] of 43 nM.
CC(=O)N[C@H](C(=O)N[C@H](C(=O)N[C@@H](CCCCNC(N)=O)C(=O)N1Cc2ccccc2C[C@H]1C(=O)N[C@@H](Cc1ccccc1)C(N)=O)C1CCCCC1)C(C)C [PV-640] (Ac-V[Chg][hCit][Tic]F-NH2) gave an IC50 [1] of 7 nM.
CC(C)[C@H](NC(=O)CCN)C(=O)N[C@H](C(=O)N[C@@H](CCCNC(=N)N)C(=O)N1Cc2ccccc2C[C@H]1C(=O)N[C@@H](Cc1ccccc1)C(N)=O)C1CCCCC1 [PV-638] (H-[βAla]V[Chg]R[Tic]F-NH2) was tested, and the IC50 [1] was 2 nM.
Compound CC(=O)N[C@H](C(=O)N[C@H](C(=O)N[C@@H](CCCNC(=N)N)C(=O)N1Cc2ccccc2C[C@H]1C(=O)N[C@@H](Cc1ccc2ccccc2n1)C(N)=O)C1CCCCC1)C(C)C [PV-617, reference compound] (Ac-V[Chg]R[Tic][X1]-NH2) has an IC50 [1] of 3450 nM.
CC(=O)N[C@H](C(=O)N[C@H](C(=O)N[C@@H](Cc1c[nH]c(N)n1)C(=O)N1Cc2ccccc2C[C@H]1C(=O)N[C@@H](Cc1ccccc1)C(N)=O)C1CCCCC1)C(C)C [PV-839] (Ac-V[Chg][X3][Tic]F-NH2) was tested, and the IC50 [1] was 25 nM.
CNC(=O)[C@H](Cc1ccccc1)NC(=O)[C@@H]1Cc2ccccc2CN1C(=O)[C@H](CCCNC(=N)N)NC(=O)[C@@H](NC(=O)[C@@H](NC(C)=O)C(C)C)C1Cc2ccccc2C1 [PV-629] (Ac-V[Igl]R[Tic]F-NHMe) showed an IC50 [1] of 17 nM.
Work on CC(=O)N[C@H](C(=O)N[C@H](C(=O)N[C@@H](CCCNC(=N)N)C(=O)N1Cc2ccccc2C[C@H]1C(=O)N[C@@H](Cc1ccccc1)C(N)=O)C1Cc2ccccc2C1)C(C)C [PV-594] (Ac-V[Igl]R[Tic]F-NH2) yielded an IC50 [1] of 14 nM.
Compound “EAEQLRRAYLDGTGVE [A3 152-166, reference compound]” has an IC50 (reference peptide, DRB1*1501, read-out: IC50) of 14 nM.
Work on CC(=O)N[C@H](C(=O)N[C@@H](CCCNC(=N)N)C(=O)N1Cc2ccccc2C[C@H]1C(=O)N[C@@H](Cc1cn(C)c2ccccc12)C(N)=O)C1CCCCC1 [PV-508] (Ac-[Chg]R[Tic][Trp(1-Me)]-NH2) yielded an IC50 [1] of 213 nM.
CC(=O)N[C@H](C(=O)N[C@H](C(=O)N[C@@H](CCCNC(=N)N)C(=O)N1Cc2ccccc2C[C@H]1C(=O)N[C@@H](Cc1ccccc1)C(=O)O)C1Cc2ccccc2C1)C(C)C [PV-624] (Ac-V[Igl]R[Tic]F-OH) gave an IC50 [1] of 161 nM.
Work on CC(=O)N[C@H](C(=O)N[C@H](C(=O)N[C@@H](CCNC(N)=O)C(=O)N1Cc2ccccc2C[C@H]1C(=O)N[C@@H](Cc1ccccc1)C(N)=O)C1CCCCC1)C(C)C [PV-642] (Ac-V[Chg][Dab(CONH2)][Tic]F-NH2) yielded an IC50 [1] of 4 nM.
CC(C)[C@H](NC(=O)CN)C(=O)N[C@H](C(=O)N[C@@H](CCCNC(=N)N)C(=O)N1Cc2ccccc2C[C@H]1C(=O)N[C@@H](Cc1ccccc1)C(N)=O)C1CCCCC1 [PV-633] (H-GV[Chg]R[Tic]F-NH2) showed an IC50 [1] of 1 nM.
For CNCC(=O)N[C@H](C(=O)N[C@H](C(=O)N[C@@H](CCCNC(N)=O)C(=O)N1Cc2ccccc2C[C@H]1C(=O)N[C@@H](Cc1ccccc1)C(N)=O)C1CCCCC1)C(C)C [PV-662] (H-[Sar]V[Chg][Cit][Tic]F-NH2), the IC50 [1] was 4 nM.
Work on CC(C)[C@H](NC(=O)CCN)C(=O)N[C@H](C(=O)N[C@@H](Cc1cscn1)C(=O)N1Cc2ccccc2C[C@H]1C(=O)N[C@@H](Cc1ccccc1)C(N)=O)C1CCCCC1 [PV-833] (H-[βAla]V[Chg][Ala(4-thiazolyl)][Tic]F-NH2) yielded an IC50 [1] of 17 nM.
CC(=O)N[C@H](C(=O)N[C@H](C(=O)N[C@@H](CCCNC(=N)N)C(=O)N1Cc2ccccc2C[C@H]1C(=O)N[C@@H](Cc1ccccc1)C(=O)N1CCOCC1)C1CCCCC1)C(C)C [PV-630] (Ac-V[Chg]R[Tic]F-Morpholide) showed an IC50 (read-out: binding IC50) of 33 nM.
Work on CC(=O)N[C@H](C(=O)N[C@H](C(=O)N[C@@H](CCCNC(=N)N)C(=O)N1Cc2ccccc2C[C@H]1C(=O)N[C@@H](Cc1ccccc1)C(N)=O)C1CCCCC1)[C@@H](C)O [PV-526] (Ac-T[Chg]R[Tic]F-NH2) yielded an IC50 [1] of 29 nM.
